Columns and labels:
Assay type in all cases: cell-based, human
MSCs = test: Cell cycle progression by flow cytometry with PI staining; conditions: inhibitor pretreatment (AG1478 25 μM, 30 min; WP1066 5 μM), then EpEX 18 h
Protocol: Phospho-EGFR (Tyr845) was detected by Western blotting. […] After treatment, cell cycle progression was investigated by flow cytometry with PI staining. Fraction of cells in each phase (G1, S, G2/M) of the cell cycle was evaluated. Cells that expressed EGFR shRNA or shLuc were treated with EpEX for 18 h. After treatment, cell cycle progression was investigated by flow cytometry with PI staining. Fraction of cells in each phase (G1, S, G2/M) of the cell cycle was evaluated. […] The protein expression of cell cycle regulators (cyclin D1, cyclin D2, cyclin E1) and pluripotency factors (Oct4, Sox2, c-Myc, Lin28) was examined by Western blotting. MSCs expressing EGFR shRNA were stimulated by EpEX. After treatment, the protein expression of cell cycle regulators (cyclin D1, cyclin E1, CDK4 and CDK9) and pluripotency factors (Oct4, in Sox2, c-Myc, and Lin 28) was examined by Western blotting. […] After treatment, the gene expression of pluripotency factors (Oct4, Sox2, c-Myc, Lin28 and EpCAM) was examined by qPCR.
After treatment, the protein levels of total STAT3 and phospho-STAT3 (Tyr705) were examined by Western blotting. […] Cell cycle progression was investigated by flow cytometry with PI staining. Fraction of cells in each phase (G1, S, G2/M) of the cell cycle was evaluated. […] Fraction of cells in each phase (G1, S, G2/M) of the cell cycle was evaluated. […]

[1] = system: cyclin A2, cyclin D1, cyclin D2, cyclin D3, cyclin E1, CDK4, CDK9, Oct4, Sox2, c-Myc, Lin28; test: Western blotting of cell cycle regulators and pluripotency factors in MSCs; conditions: pretreatment, then EpEX
Protocol: The proliferation of MSCs was examined by measuring doubling time. MSCs were treated with EpEX (3 μg/mL) for 24 and 48 h. Cell number was counted and then doubling time was calculated. MSCs were treated with EpEX (3 μg/mL) for the indicated times. After treatment, protein expression of cell cycle regulators (cyclin D1, cyclin D2, cyclin D3, cyclin E1, CDK4 and CDK9) and pluripotency factors (Oct4, Sox2, c-Myc, and Lin28) was examined by Western blotting.
Phospho-EGFR (Tyr845) was detected by Western blotting. […] After treatment, cell cycle progression was investigated by flow cytometry with PI staining. Fraction of cells in each phase (G1, S, G2/M) of the cell cycle was evaluated. Cells that expressed EGFR shRNA or shLuc were treated with EpEX for 18 h. After treatment, cell cycle progression was investigated by flow cytometry with PI staining. Fraction of cells in each phase (G1, S, G2/M) of the cell cycle was evaluated. […]
After treatment, the protein levels of total STAT3 and phospho-STAT3 (Tyr705) were examined by Western blotting. […] Fraction of cells in each phase (G1, S, G2/M) of the cell cycle was evaluated. […] Fraction of cells in each phase (G1, S, G2/M) of the cell cycle was evaluated. […]
The expression of let-7 was detected by qPCR. […] The expression of let-7 was detected by qPCR. […]

STAT3 (Tyr705) = test: STAT3 phosphorylation by Western blotting
Protocol: After treatment, the protein levels of total STAT3 and phospho-STAT3 (Tyr705) were examined by Western blotting. […] Cell cycle progression was investigated by flow cytometry with PI staining. Fraction of cells in each phase (G1, S, G2/M) of the cell cycle was evaluated. Cells expressing STAT3 shRNA were treated with EpEX for 18 h, after which cell cycle progression was investigated by flow cytometry with PI staining. Fraction of cells in each phase (G1, S, G2/M) of the cell cycle was evaluated. […] The protein levels of cell cycle regulators (cyclin D1, cyclin D2, cyclin E1, CDK4 and CDK9) and pluripotency factors (Oct4, Sox2, c-Myc, Lin28) were examined by Western blotting. MSCs expressing STAT3 shRNA or shLuc were stimulated with EpEX. After treatment, the protein levels of cell cycle regulators (cyclin D1, cyclin D2, cyclin E1, CDK4 and CDK9) and pluripotency factors (Oct4, Sox2, c-Myc, and Lin 28) were examined by Western blotting. […] After treatment, the gene expression of pluripotency factors (Oct4, Sox2, c-Myc, Lin28 and EpCAM) was examined by qPCR.
FIG. 8. EpEX and EGF induce the phosphorylation of EGFR and STAT3. […] The phosphorylation of EGFR (Tyr845) and STAT3 (Tyr705) were examined by Western blotting with specific antibodies.
Western blotting was performed as previously described (Takahashi et al., 2003). […]

[2] = system: TACE (Ser435), PS2 (Ser327), ERK1/2; test: Western blotting of phosphorylation of TACE, Presenilin 2 and ERK1/2; conditions: addition of EGFR inhibitor
Protocol: FIG. 9. EpEX induces the phosphorylation and activity of TACE and γ-secretase. MSCs were stimulated by EpEX for the indicated times, and the activity of TACE and γ-secretase were detected. MSCs were stimulated by EpEX (3 μg/mL) for the indicated times. Western blot analysis was performed to detect the phosphorylation of TACE and Presenilin 2.
FIG. 10. EpEX and EGF induce the phosphorylation of TACE, ERK1/2 and PS2. MSCs were treated with either EGF, EpEX, or co-treated with EGF and EpEX for 5 min. The phosphorylation of ERK1/2 was examined by Western blotting with specific antibodies. […] The phosphorylation of ERK1/2, TACE (Ser435), PS2 (Ser327) were examined by Western blotting with specific antibodies.
Western blotting was performed as previously described (Takahashi et al., 2003). Cells were lysed in lysis buffer (150 mM NaCl, 50 mM Tris-HCl (pH 7.4), 1% Nonidet P-40), containing a protease inhibitor mix (Roche Applied Science). Nuclear fractions and cytoplasmic fractions were separated by the Nuclear/Cytosol Fractionation Kit according to the manufacturer's instructions (BioVision Inc., Milpitas, CA, USA). Protein samples were separated by SDS-PAGE under denaturing conditions, and transferred to a PVDF membrane (Millipore). […]

Molecule | effect on EpEX-induced cell cycle progression (MSCs) | effect on EpEX-induced protein expression of cell cycle regulators and pluripotency markers [1] | effect on activation of STAT3 by either EGF or EpEX (STAT3 (Tyr705); pretreatment with AG1478) | effect on EpEX-induced phosphorylation of TACE [2] | effect on EpEX-induced phosphorylation of presenilin-2 [2] | STAT3 phosphorylation (STAT3 (Tyr705); MSCs treated with the substance)
COc1cc2ncnc(Nc3cccc(Cl)c3)c2cc1OC [AG1478, reference compound] | attenuated | abolished | can attenuate | can be abolished | can be abolished | –
C[C@H](NC(=O)/C(C#N)=C/c1cccc(Br)n1)c1ccccc1 [WP1066, reference compound] | attenuated | blocked | – | – | – | –
EGF: cognate ligand for EGFR | – | – | – | – | – | can induce
